{"source": "paper PMC3950977", "about": "(Nanotechnology, 2011)", "key": {"[1]": {"settings": "transmission electron microscopy and dynamic light scattering; cited from earlier work"}, "[2]": {"assay": "Peptide degradation by proteinase K", "assay_type": "in vitro ADME", "settings": "isolated enzyme proteinase k, pH 7.1"}}, "note": "Peptide text beside a SMILES is read from it. * marks the point of attachment. X1 = NC(=O)CCOCCOCCOCCOCCOCCOCCOCCOCCOCCOCCOCCOCCOCCOCCOCCOCCOCCOCCOCCOCCOCCOCCOCCOCCOCCOCCOCCOCCN*"}
{"smiles": "CC[C@H](C)[C@H](NC(=O)[C@@H](NC(=O)[C@H](Cc1ccccc1)NC(=O)[C@H](CC(C)C)NC(=O)[C@@H](N)CC(C)C)C(C)C)C(=O)N[C@H](C(=O)N[C@@H](CC(C)C)C(=O)N1CCC[C@H]1C(=O)N[C@@H](Cc1ccccc1)C(=O)N[C@@H](Cc1c[nH]c2ccccc12)C(=O)N[C@@H](C)C(=O)N[C@H](C(=O)N[C@@H](CC(=O)O)C(=O)N[C@@H](C)C(=O)N[C@H](C(=O)N[C@@H](C)C(=O)N[C@@H](CC(N)=O)C(=O)N[C@@H](Cc1c[nH]c2ccccc12)C(=O)N[C@@H](Cc1ccc(O)cc1)C(=O)N[C@@H](Cc1ccccc1)C(=O)NCC(=O)N[C@@H](CC(N)=O)C(=O)N[C@@H](CC(=O)O)C(=O)N[C@@H](CC(=O)O)C(=O)NCCOCCOCCOCCOCCOCCOCCOCCOCCOCCOCCOCCOCCOCCOCCOCCOCCOCCOCCOCCOCCOCCOCCOCCOCCOCCOCCOCCOCCC(N)=O)C(C)C)C(C)C)[C@@H](C)O", "note": "[x4-2-6] (H-LLFVITLPFWAVDAVANWYFGNDD-X1)", "values": [{"measurement": "diameter of self-assembled nanospheres", "setting": "[1]", "value": 10, "unit": "nm"}, {"measurement": "half-life", "setting": "[2]", "value": "11.8 ± 1.8", "unit": "min"}]}
{"smiles": "CC[C@H](C)[C@H](NC(=O)[C@@H](NC(=O)[C@@H](N)Cc1ccccc1)C(C)C)C(=O)N[C@H](C(=O)N[C@@H](CC(C)C)C(=O)N1CCC[C@H]1C(=O)N[C@@H](Cc1ccccc1)C(=O)N[C@@H](Cc1c[nH]c2ccccc12)C(=O)N[C@@H](C)C(=O)N[C@H](C(=O)N[C@@H](CC(=O)O)C(=O)N[C@@H](C)C(=O)N[C@H](C(=O)N[C@@H](C)C(=O)N[C@@H](CC(N)=O)C(=O)N[C@@H](Cc1c[nH]c2ccccc12)C(=O)N[C@@H](Cc1ccc(O)cc1)C(=O)N[C@@H](Cc1ccccc1)C(=O)NCC(=O)N[C@@H](CC(N)=O)C(=O)N[C@@H](CC(=O)O)C(=O)N[C@@H](CC(=O)O)C(=O)NCCOCCOCCOCCOCCOCCOCCOCCOCCOCCOCCOCCOCCOCCOCCOCCOCCOCCOCCOCCOCCOCCOCCOCCOCCOCCOCCOCCOCCC(N)=O)C(C)C)C(C)C)[C@@H](C)O", "note": "[x4-2-9] (H-FVITLPFWAVDAVANWYFGNDD-X1)", "values": [{"measurement": "half-life", "setting": "[2]", "value": "2.9 ± 1.2", "unit": "min"}]}
